Assay: xn = mol fraction of the nth substance listed
Conditions: 298.15 K, 100 kPa

CCCCCCCCn1cc[n+](C)c1.O=S(=O)([N-]S(=O)(=O)C(F)(F)F)C(F)(F)F + CCCCOC(C)=O
Conditions	electrical conductivity [S/m]	viscosity [mPa·s]
x2 = 0.2622	–	44.2
x2 = 0.481	0.307	–
x2 = 0.5001	–	17.1
x2 = 0.6824	0.407	–
x2 = 0.7372	0.414	–
x2 = 0.7503	–	4.99
x2 = 0.7923	0.406	–
x2 = 0.797	–	3.47
x2 = 0.8503	–	2.53
x2 = 0.8928	0.279	–
x2 = 0.8976	–	1.73
x2 = 0.9305	–	1.308
x2 = 0.9456	0.19	–

CCCCCCCC[n+]1ccccc1.O=S(=O)([N-]S(=O)(=O)C(F)(F)F)C(F)(F)F + CCCCOC(C)=O
Conditions	electrical conductivity [S/m]	viscosity [mPa·s]
x2 = 0	0.097	104.1
x2 = 0.2414	0.166	–
x2 = 0.2556	–	49.6
x2 = 0.481	0.271	–
x2 = 0.501	–	18.43
x2 = 0.6984	–	6.82
x2 = 0.7372	0.384	–
x2 = 0.7522	–	4.87
x2 = 0.7923	0.377	–
x2 = 0.7996	–	3.57
x2 = 0.8427	0.333	–
x2 = 0.8487	–	2.47
x2 = 0.8928	0.258	–
x2 = 0.8996	–	1.732
x2 = 0.9456	0.124	–
x2 = 0.9493	–	1.227

CCCCOC(C)=O + CCCC[n+]1ccn(C)c1.O=S(=O)([N-]S(=O)(=O)C(F)(F)F)C(F)(F)F
Conditions	electrical conductivity [S/m]	viscosity [mPa·s]
x1 = 0.2414	0.529	26
x1 = 0.481	0.67	11.88
x1 = 0.6824	0.725	4.9
x1 = 0.7372	0.704	3.42
x1 = 0.7923	0.654	2.65
x1 = 0.8427	0.535	2.043

CCCCCCCC[N+]1(C)CCCC1.O=S(=O)([N-]S(=O)(=O)C(F)(F)F)C(F)(F)F + CCCCOC(C)=O
Conditions	electrical conductivity [S/m]	viscosity [mPa·s]
x2 = 0	0.082	138.2
x2 = 0.481	0.256	–
x2 = 0.4969	–	17.37
x2 = 0.6954	–	7.1
x2 = 0.7372	0.361	–
x2 = 0.7499	–	5.07
x2 = 0.8031	–	3.42
x2 = 0.8484	–	2.5
x2 = 0.8928	0.242	–
x2 = 0.9016	–	1.732
x2 = 0.9431	–	1.202
x2 = 0.9456	0.131	–

— a compilation of properties of binary mixtures (doi:10.1039/c7cp05886a)
